Several values for one entry are separate records, joined by “and”; a condition that tells them apart may be missing. Identical values can stand only once. Entries after “also recorded” stand apart in the source; their conditions may differ.
Legend:
PR (h) = target: T1, PR (h) (Homo sapiens, UniProt P06401); assay: PR (h) (agonist radioligand) binding assay
T1 construct: T47D cells (cytosol)
T1 sequence (P06401 679-933): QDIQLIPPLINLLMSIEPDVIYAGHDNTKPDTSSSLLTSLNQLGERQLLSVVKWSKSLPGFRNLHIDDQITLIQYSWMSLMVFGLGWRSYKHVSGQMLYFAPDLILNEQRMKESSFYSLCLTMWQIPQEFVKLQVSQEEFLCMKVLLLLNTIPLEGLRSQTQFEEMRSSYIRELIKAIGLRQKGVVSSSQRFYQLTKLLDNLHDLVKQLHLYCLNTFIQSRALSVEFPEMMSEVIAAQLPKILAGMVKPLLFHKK

MT3 (ML2) = target: T2, MT3 (ML2) (Mesocricetus auratus, UniProt A0ABM2YAB8); assay: MT3 (ML2) (agonist radioligand) binding assay; conditions: MT3 (ML2) (agonist radioligand)
T2 sequence (A0ABM2YAB8 1-231): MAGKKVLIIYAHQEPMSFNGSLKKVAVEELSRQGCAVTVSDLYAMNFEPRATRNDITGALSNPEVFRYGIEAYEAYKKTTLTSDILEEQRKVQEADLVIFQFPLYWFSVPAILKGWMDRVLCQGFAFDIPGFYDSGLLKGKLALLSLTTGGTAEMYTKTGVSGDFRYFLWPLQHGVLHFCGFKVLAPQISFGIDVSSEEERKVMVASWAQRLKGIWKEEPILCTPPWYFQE

5-HT2B (h) = 5-HT2B (h) (Homo sapiens, UniProt P41595); assay: 5-HT2B (h) (agonist radioligand) binding assay
Chain of 5-HT2B (h) (P41595 whole entry): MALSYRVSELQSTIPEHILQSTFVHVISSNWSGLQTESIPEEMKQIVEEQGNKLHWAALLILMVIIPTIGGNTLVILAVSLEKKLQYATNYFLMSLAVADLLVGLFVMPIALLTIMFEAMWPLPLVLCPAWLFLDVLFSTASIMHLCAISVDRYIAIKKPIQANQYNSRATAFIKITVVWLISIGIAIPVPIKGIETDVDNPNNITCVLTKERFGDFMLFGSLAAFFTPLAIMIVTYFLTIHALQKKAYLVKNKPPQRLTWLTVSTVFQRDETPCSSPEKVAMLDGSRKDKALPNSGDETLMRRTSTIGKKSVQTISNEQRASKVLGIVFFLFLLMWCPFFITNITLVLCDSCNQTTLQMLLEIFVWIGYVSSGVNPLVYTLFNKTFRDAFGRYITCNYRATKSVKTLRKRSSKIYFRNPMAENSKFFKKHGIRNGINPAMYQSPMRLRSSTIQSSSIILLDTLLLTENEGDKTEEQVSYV

rat hippocampal cultures [1] = assay: cells; format: cell-based; conditions: DMSO
rat hippocampal cultures [2] = assay: Propidium iodide cell death assay, protection from hydrogen peroxide toxicity; format: cell-based; conditions: DMSO; for Cell death (Propidium Iodide), % of Control / Cell death (Propidium Iodide), Mean / Cell death (Propidium Iodide), individual values: 5 hours
[3] = Example 13, CFDA, 10 μM hydrogen peroxide, 5 h, 0.1 to 300 μM tested
[4] = Example 13, PI, 10 μM hydrogen peroxide, 5 h, 0.1 to 300 μM tested
[5] = 0.1 μM + 10 μM hydrogen peroxide, 5 hours
[6] = 1 μM + 10 μM hydrogen peroxide, 5 hours
[7] = 10 μM + 10 μM hydrogen peroxide, 5 hours
[8] = 100 μM + 10 μM hydrogen peroxide, 5 hours
[9] = 300 μM + 10 μM hydrogen peroxide, 5 hours
[10] = 0.1 μM + 10 μM hydrogen peroxide
[11] = 10 μM + 10 μM hydrogen peroxide
[12] = 100 μM + 10 μM hydrogen peroxide
[13] = 300 μM + 10 μM hydrogen peroxide

SMILES | Neuronal viability (CFDA), % of Control (rat hippocampal cultures [1]; [5]) | Neuronal viability (CFDA), Mean (rat hippocampal cultures [1]; [5]) | Neuronal viability (CFDA), % of Control (rat hippocampal cultures [1]; [6]) | Neuronal viability (CFDA), Mean (rat hippocampal cultures [1]; [6]) | Neuronal viability (CFDA), % of Control (rat hippocampal cultures [1]; [7]) | Neuronal viability (CFDA), Mean (rat hippocampal cultures [1]; [7]) | Neuronal viability (CFDA), % of Control (rat hippocampal cultures [1]; [8]) | Neuronal viability (CFDA), Mean (rat hippocampal cultures [1]; [8]) | Neuronal viability (CFDA), % of Control (rat hippocampal cultures [1]; [9]) | Neuronal viability (CFDA), Mean (rat hippocampal cultures [1]; [9]) | Cell death (Propidium Iodide), % of Control (rat hippocampal cultures [2]; [10]) | Cell death (Propidium Iodide), Mean (rat hippocampal cultures [2]; [10]) | Cell death (Propidium Iodide), individual values (rat hippocampal cultures [2]; [10]) | Cell death (Propidium Iodide), % of Control (rat hippocampal cultures [2]; 1 μM + 10 μM hydrogen peroxide) | Cell death (Propidium Iodide), Mean (rat hippocampal cultures [2]; 1 μM + 10 μM hydrogen peroxide) | Cell death (Propidium Iodide), individual values (rat hippocampal cultures [2]; 1 μM + 10 μM hydrogen peroxide) | Cell death (Propidium Iodide), % of Control (rat hippocampal cultures [2]; [11]) | Cell death (Propidium Iodide), Mean (rat hippocampal cultures [2]; [11]) | Cell death (Propidium Iodide), individual values (rat hippocampal cultures [2]; [11]) | Cell death (Propidium Iodide), % of Control (rat hippocampal cultures [2]; [12]) | also measured
CCC(=O)[C@@]1(C)CC[C@H]2[C@@H]3CCC4=CC(=O)CCC4=C3CC[C@@]21C [promegestone] | – | – | – | – | – | – | – | – | – | – | – | – | – | – | – | – | – | – | – | – | IC50 (PR (h)): 0.47 nM; Ki (PR (h)): 0.38 nM; nH (PR (h)): 1.6
COc1ccc2[nH]cc(CCNC(C)=O)c2c1 [melatonin] | – | – | – | – | – | – | – | – | – | – | – | – | – | – | – | – | – | – | – | – | IC50 (MT3 (ML2)): 72 nM; Ki (MT3 (ML2)): 71 nM; nH (MT3 (ML2)): 0.8
COc1cc(CC(C)N)c(OC)cc1I (racemic) [(±)DO1] | – | – | – | – | – | – | – | – | – | – | – | – | – | – | – | – | – | – | – | – | IC50 (5-HT2B (h)): 6.9 nM; nH (5-HT2B (h)): 0.9
CC(C)(O)c1nc2ncccc2cc1N [ALD-5] | – | – | – | – | – | – | – | – | – | – | – | – | – | – | – | – | – | – | – | – | EC50 ± SE (rat hippocampal cultures [1]; [3]): Inactive; Full Efficacy Concentration (rat hippocampal cultures [1]; [3]): Inactive; No effect Concentration (rat hippocampal cultures [1]; [3]): Inactive; EC50 ± SE (rat hippocampal cultures [2]; [4]): Inactive; Full Efficacy Concentration (rat hippocampal cultures [2]; [4]): Inactive; No effect Concentration (rat hippocampal cultures [2]; [4]): Inactive; protection from cell death (rat hippocampal cultures [2]; PI, 0.1 to 300 μM, 10 μM hydrogen peroxide, 5 h): no statistically significant protection from cell death; also recorded: did not produce statistically significant protection from cell death
CC(C)(O)c1nc2ncccc2cc1N [ALD5] | 69 ± 1% | 38942 | 66 ± 3% | 37447 | 65 ± 3% | 36940 | 66 ± 4% | 37605 | 74 ± 1% | 42249 | 202 ± 15% | 301 | 225 and 325 and 294 (2×) and 366 | 196 ± 1% | 292 | 285 and 294 (4×) | 191 ± 11% | 285 | 294 (3×) and 320 and 225 | 181 ± 7% | Cell death (Propidium Iodide), Mean (rat hippocampal cultures [2]; [12]): 269; Cell death (Propidium Iodide), individual values (rat hippocampal cultures [2]; [12]): 250 (2×) and 294 (2×) and 255; Cell death (Propidium Iodide), % of Control (rat hippocampal cultures [2]; [13]): 205 ± 8%; Cell death (Propidium Iodide), Mean (rat hippocampal cultures [2]; [13]): 305; Cell death (Propidium Iodide), individual values (rat hippocampal cultures [2]; [13]): 294 (3×) and 293 and 352
CC(C)(O)c1nc2ccccc2nc1N [ALD2] | 67 ± 3% | 38243 | 67 ± 4% | 38073 | 71 ± 5% | 40512 | 68 ± 4% | 38674 | 72 ± 4% | 41274 | 172 ± 5% | 274 | 258 and 294 (2×) and 259 and 266 | 166 ± 9% | 264 | 229 and 294 and 258 and 242 and 298 | 167 ± 13% | 266 | 293 and 329 and 258 and 225 (2×) | 157 ± 8% | Neuronal viability (CFDA), individual values (rat hippocampal cultures [1]; [5]): 40839 (3×) and 34813 and 33885; Cell death (Propidium Iodide), Mean (rat hippocampal cultures [2]; [12]): 249; Cell death (Propidium Iodide), individual values (rat hippocampal cultures [2]; [12]): 225 (2×) and 258 and 242 and 294; Cell death (Propidium Iodide), % of Control (rat hippocampal cultures [2]; [13]): 182 ± 8%; Cell death (Propidium Iodide), Mean (rat hippocampal cultures [2]; [13]): 290; Cell death (Propidium Iodide), individual values (rat hippocampal cultures [2]; [13]): 302 and 294 (2×) and 320 and 242
